# Source: patent publication EP0560232A1, “Novel 7-aminolabdanes, a process for their preparation and their use as pharmaceutical agents” (HOECHST AKTIENGESELLSCHAFT, priority 1992, dated 1993)
# Experiments:
# Isolated Rat Portal Vein = experiment: Potassium channel opening activity, isolated rat portal vein model (KCl-induced contractions); conditions: Dose 10^-6 Mol, 5 min incubation, n=5, mean + SEM, vehicle D.W. or DMSO; for Percent Inhibition Activity KCl20 mM: reduction of KCl 20 mM induced contraction; for Percent Inhibition Activity KCl80 mM: reduction of KCl 80 mM induced contraction
# Method: Potassium channel opening activity: - Isolated Rat Portal Vein model.
# Normal male albino rats of the Charles Foster strain of weight range 200 to 250 g were used.
# After sacrificing the animal, abdomen was opened and portal vein was isolated and mounted in an organ bath containing Kerb's solution. The bath was maintained at 37°C and aerated with 95 vol.% oxygen and 5 vol.% carbon dioxide gas mixture. The tissue was kept under 0.5 to 1 g tension and allowed to stabilise for about 30 minutes. KCl₂₀ and KCl₈₀ mM induced cumulative concentrations were measured-through Hugo Sachs Force displacement transducer (K-30) and recorded on 4 channel digital recorder. After taking 2 control responses, the tissue was incubated with test substance for 5 minutes and dose response was repeated. The percent reduction in KCl₂₀ and KCl₈₀ mM induced contractions were calculated from the control values. Standard potassium channel opener selectively blocks the KCl₂₀ induced contractions without affecting the KCl₈₀ mM induced responses. […] The test compounds were administered in a volume of 0.2 ml per concentration. All results are expressed as mean + SEM.
# Hypovolemic rats = experiment: Blood pressure lowering activity in hypovolemic rats; type: in vivo; conditions: for Blood pressure (mm Hg) Initial: before drug
# Method: Hypovolemic rats were used for this activity. Hypovolemic rats were prepared by the administration of 100 mg/kg furosemide intra peritoneally 1 hour prior to the actual experiment. After administering furosemide the rats were anesthesised with 1.5 g/kg urethane given i.p. The right carotid artery was cannulated and blood pressure was mentioned on a physiological recorder by connecting the carotial cannula to a pressure transducer. The left jugular vein was cannulated for i.v. administration of test substances - intra duodenal (i.d.) administration is made by exposing a portion of the duodenum through a small incision made in the abdomen below the sternum. Blood pressure was monitored for 10 minutes in case of i.v. administration and for 90 to 120 minutes when the drug was administered by the i.d. route.
SMILES,Percent Inhibition Activity KCl20 mM (Isolated Rat Portal Vein),Percent Inhibition Activity KCl80 mM (Isolated Rat Portal Vein),Blood pressure % change (Hypovolemic rats; 30 mg/kg i.d.),Blood pressure (mm Hg) Post drug (Hypovolemic rats; 30 mg/kg i.d.),Blood pressure duration (Hypovolemic rats; 30 mg/kg i.d.),Blood pressure (mm Hg) Initial (Hypovolemic rats; group dosed 30 mg/kg i.d.),Blood pressure % change (Hypovolemic rats; 10 mg/kg i.v.),Blood pressure (mm Hg) Post drug (Hypovolemic rats; 10 mg/kg i.v.),Blood pressure duration (Hypovolemic rats; 10 mg/kg i.v.),Blood pressure (mm Hg) Initial (Hypovolemic rats; group dosed 10 mg/kg i.v.)
"C=C[C@@]1(C)CC(=O)[C@H]2[C@](C)(O1)[C@H](NC(C)=O)C=C1C(C)(C)CCC[C@@]12C [(α)NHCOCH3, 7α-Acetylamino-8,13-epoxy-labd-5,14-dien-11-one]",34+10%,5+2%,-15.4±3%,80±4 mm Hg,30 min,94±3 mm Hg,,,,
"C=C[C@@]1(C)CC(=O)[C@H]2[C@](C)(O1)[C@H](N)C=C1C(C)(C)CCC[C@@]12C [(α)NH2, 7α-Amino-8,13-epoxy-labd-5,14-dien-11-one]",57+9%,34+9%,,,,,-20.5±3%,68±4 mm Hg,5 min,87±9 mm Hg
"C=C[C@@]1(C)CC(=O)[C@@]2(O)[C@](C)(O1)[C@@H](N)C=C1C(C)(C)CC[C@H](O)[C@@]12C [(β)NH2, 7β-Amino-1α,9α-dihydroxy-8,13-epoxy-labd-5,14-dien-11-one]",,,,,,,,38±2 mm Hg,>70 min,90±10 mm Hg
